From paper PMC10238102, “Anti-SARS-CoV-2 Activity of Adamantanes In Vitro and in Animal Models of Infection” (COVID, 2022)
pIC50: −log10 of the molar value.

Assays:
[1] = test system: SARS-CoV-2 omicron variant B.1.1.529; assay: microbe, parasite or virus in culture; format: cell-based; details: Severe acute respiratory syndrome coronavirus 2, Vero C1008, 48 h
[2] = mouse, in vivo

For `NC12CC3CC(CC(C3)C1)C2` [amantadine], the pIC50 [1] was 3.97 and the “weight loss at 3 DPI compared to water control” value [2] was “significant amount of weight loss”.

Work on `CCC(CC)COC(=O)[C@H](C)N[P@](=O)(OC[C@H]1O[C@@](C#N)(c2ccc3c(N)ncnn23)[C@H](O)[C@@H]1O)Oc1ccccc1` [remdesivir] yielded a pIC50 [1] of 6.05.

`CC(N)C12CC3CC(CC(C3)C1)C2` (stereo not shown) [rimantadine] showed a pIC50 [1] of 4.75.
